# Test results: ChEMBL document CHEMBL5316284, “Structural Determinants of Indole-2-carboxamides: Identification of Lead Acetamides with Pan Antimycobacterial Activity” (J Med Chem, 2023)
# Assays:
# [1] = system: Mycobacteroides abscessus; assay: Antimycobacterial activity against Mycobacterium abscessus […] assessed as inhibition of bacterial growth measured after 5 days by visual analysis; format: functional; settings: 120 h, time 5 day
# [2] = system: Mycobacterium tuberculosis; assay: Antimycobacterial activity against Mycobacterium tuberculosis H37Rv mc2 6206 assessed as inhibition of bacterial growth measured after 7 days by visual analysis; format: functional; settings: H37Rv mc2 6206, 168 h, time 7 day
# [3] = Kinetic solubility of compound at pH 7.4 incubated for 6 hrs by LC-MS/MS analysis; format: physicochemical; settings: buffer, read-out: Kinetic_solubility
# [4] = Permeability of the compound by PAMPA method; format: ADME
# [5] = Plasma protein binding in human at 10 ug/ml incubated for 4 hrs under shaking condition by LC/MS/MS analysis; format: ADME, cell-free; settings: at 10 µg/mL, read-out: PPB (converted)
# [6] = Metabolic stability in human liver S9 fraction assessed as parent compound remaining at 5 ug/ml after 90 mins in presence of NADPH by LC/MS analysis; format: ADME, subcellular; settings: s9, 1.5 h, dose 5 µg/ml
# [7] = Metabolic stability in mouse liver S9 fraction assessed as parent compound remaining at 5 ug/ml after 90 mins in presence of NADPH by LC/MS analysis; format: ADME, subcellular; settings: s9, 1.5 h, dose 5 µg/ml
# [8] = Cytotoxicity against human WI26VA4 cells assessed as inhibition of cell growth measured after 72 hrs by MTT assay; format: toxicity, cell-based
# [9] = Selectivity index, ratio of IC50 for Cytotoxicity against human WI26VA4 cells to MIC for antimycobacterial activity against Mycobacterium abscessus […]; format: toxicity, cell-based; settings: read-out: Selectivity Index
# [10] = Selectivity index, ratio of IC50 for Cytotoxicity against human WI26VA4 cells to MIC for antimycobacterial activity against Mycobacterium tuberculosis H37Rv mc2 6206; format: toxicity, cell-based; settings: read-out: Selectivity Index
# [11] = system: Mycolicibacterium fortuitum; assay: Antimycobacterial activity against Mycobacterium fortuitum ATCC 6841 assessed as inhibition of bacterial growth by visual analysis; format: functional
# [12] = Antimycobacterial activity against Mycobacterium avium subsp. avium 2585R assessed as inhibition of bacterial growth by visual analysis; format: functional
# [13] = system: Mycobacterium intracellulare; assay: Antimycobacterial activity against Mycobacterium intracellulare 1956 assessed as inhibition of bacterial growth by visual analysis; format: functional
# Mycobacteroides chelonae = assay: Antimycobacterial activity against Mycobacteroides chelonae ATCC 35752 assessed as inhibition of bacterial growth by visual analysis; format: functional
# [14] = system: Mycobacterium intracellulare subsp. chimaera; assay: Antimycobacterial activity against Mycobacterium intracellulare subsp. chimaera 1501948 assessed as inhibition of bacterial growth by visual analysis; format: functional
# Mycobacterium kansasii = assay: Antimycobacterial activity against Mycobacterium kansasii ATCC 1279 assessed as inhibition of bacterial growth by visual analysis; format: functional
# THP-1 = assay: Cytotoxicity against human THP-1 cells assessed as inhibition of cell growth measured after 72 hrs by MTT assay; format: toxicity, cell-based
# [15] = system: Mycobacteroides abscessus; assay: Antimycobacterial activity against Mycobacterium Mycobacterium abscessus ATCC 19977 harbouring mmpL3 I306S mutant gene assessed as inhibition of bacterial growth by visual analysis; format: functional
# [16] = system: Mycobacteroides abscessus; assay: Antimycobacterial activity against Mycobacterium abscessus ATCC 19977 harbouring mmpL3 A309P mutant gene assessed as inhibition of bacterial growth by visual analysis; format: functional
# [17] = system: Mycobacteroides abscessus; assay: Antimycobacterial activity against Mycobacterium abscessus ATCC 19977 harbouring mmpL3 L551S mutant gene assessed as inhibition of bacterial growth by visual analysis; format: functional
smiles,measurement,setting,value
O=C(CNc1ccc(Br)cc1)NC1C2CC3CC(C2)CC1C3 (stereo not given),MIC,[1],4 µg/mL
same,MIC,[2],4 µg/mL
O=C(CNc1ccc(Br)cc1)NC12CC3CC(CC(C3)C1)C2,MIC,[1],2 µg/mL
same,MIC,[2],8 µg/mL
same,solubility kinetic at 6 h,[3],1.3 µg/mL
same,permeability,[4],0.28 10^-6 cm/s
same,"fraction unbound at 4 h, 10 ug/ml",[5],0.004
same,t1/2,[6],2.5 h
same,t1/2,[7],4 h
same,IC50,[8],> 20 µg/mL
same,selectivity ratio,[9],> 10
same,selectivity ratio,[10],> 2.5
O=C(CNc1ccc(Cl)cc1)NC1CCCCCCC1,MIC,[1],32 µg/mL
same,MIC,[2],64 µg/mL
O=C(CNc1ccccc1)NC1CCCCCCC1,MIC,[1],8 µg/mL
same,MIC,[2],8 µg/mL
O=C(CNc1ccc(OC(F)(F)F)cc1)NC1CCCCCCC1,MIC,[1],8 µg/mL
same,MIC,[2],32 µg/mL
O=C(CNc1ccccc1)NC12CC3CC(CC(C3)C1)C2,MIC,[1],16 µg/mL
same,MIC,[2],32 µg/mL
C[C@@H]1[C@H]2C[C@@H](C[C@H]1NC(=O)CNc1cccc(Br)c1)C2(C)C,MIC,[1],1 µg/mL
same,MIC,[2],0.5 µg/mL
same,MIC,[11],2 µg/mL
same,MIC,[12],16 µg/mL
same,MIC,[13],8 µg/mL
same,MIC,Mycobacteroides chelonae,8 µg/mL
same,MIC,[14],16 µg/mL
same,MIC,Mycobacterium kansasii,8 µg/mL
same,solubility kinetic at 6 h,[3],18.6 µg/mL
same,permeability,[4],1.01 10^-6 cm/s
same,"fraction unbound at 4 h, 10 ug/ml",[5],0.045
same,t1/2,[6],4.2 h
same,t1/2,[7],5.8 h
same,IC50,[8],> 20 µg/mL
same,selectivity ratio,[9],> 20
same,selectivity ratio,[10],> 40
Cc1ccc(NCC(=O)N[C@@H]2C[C@@H]3C[C@H]([C@H]2C)C3(C)C)cc1,MIC,[1],8 µg/mL
same,MIC,[2],16 µg/mL
Cc1cc(C)c2cc(C(=O)NC3CCCCCCC3)[nH]c2c1,MIC,[1],0.063 µg/mL
same,MIC,[2],0.02 µg/mL
same,solubility kinetic at 6 h,[3],1.6 µg/mL
same,permeability,[4],0.18 10^-6 cm/s
same,"fraction unbound at 4 h, 10 ug/ml",[5],0.018
same,t1/2,[6],0.5 h
same,IC50,THP-1,> 14.9 µg/mL
same,selectivity ratio,[9],> 237
same,selectivity ratio,[10],> 764
C[C@H]1CC[C@H](NC(=O)CNc2ccccc2)CC1,MIC,[1],> 64 µg/mL
same,MIC,[2],64 µg/mL
CC[C@H]1OC(=O)[C@H](C)[C@@H](O[C@H]2C[C@@](C)(OC)[C@@H](O)[C@H](C)O2)[C@H](C)[C@@H](O[C@@H]2O[C@H](C)C[C@H](N(C)C)[C@H]2O)[C@](C)(OC)C[C@@H](C)C(=O)[C@H](C)[C@@H](O)[C@]1(C)O [CLARITHROMYCIN],MIC,[15],4 µg/mL
same,MIC,[16],4 µg/mL
same,MIC,[17],8 µg/mL
C[C@@H]1[C@H]2C[C@@H](C[C@H]1NC(=O)CNc1ccc(Cl)cc1)C2(C)C,MIC,[1],4 µg/mL
same,MIC,[2],16 µg/mL
O=C(CNc1ccc(C(F)(F)F)cc1)NC1C2CC3CC(C2)CC1C3 (stereo not given),MIC,[1],4 µg/mL
same,MIC,[2],2 µg/mL
same,solubility kinetic at 6 h,[3],23.9 µg/mL
same,permeability,[4],0.34 10^-6 cm/s
same,"fraction unbound at 4 h, 10 ug/ml",[5],0.057
same,t1/2,[6],5.8 h
same,t1/2,[7],15.6 h
same,IC50,[8],> 20 µg/mL
same,selectivity ratio,[9],> 5
same,selectivity ratio,[10],> 10
C[C@@H]1[C@H]2C[C@@H](C[C@H]1NC(=O)CNc1ccc(OC(F)(F)F)cc1)C2(C)C,MIC,[1],1 µg/mL
same,MIC,[2],4 µg/mL
same,solubility kinetic at 6 h,[3],4.5 µg/mL
same,permeability,[4],3.19 10^-6 cm/s
same,"fraction unbound at 4 h, 10 ug/ml",[5],0.048
same,t1/2,[6],9.2 h
same,t1/2,[7],4.1 h
same,IC50,[8],> 20 µg/mL
same,selectivity ratio,[9],> 20
same,selectivity ratio,[10],> 5
COc1ccc(NCC(=O)NC23CC4CC(CC(C4)C2)C3)cc1,MIC,[1],32 µg/mL
same,MIC,[2],32 µg/mL
COc1ccc(NCC(=O)N[C@@H]2C[C@@H]3C[C@H]([C@H]2C)C3(C)C)cc1,MIC,[1],32 µg/mL
same,MIC,[2],64 µg/mL
O=C(CNc1ccc(Cl)cc1)NC12CC3CC(CC(C3)C1)C2,MIC,[1],4 µg/mL
same,MIC,[2],16 µg/mL
Cc1ccc(NCC(=O)NC2C3CC4CC(C3)CC2C4)cc1 (stereo not given),MIC,[1],16 µg/mL
same,MIC,[2],4 µg/mL
COc1ccc(NCC(=O)NC2C3CC4CC(C3)CC2C4)cc1 (stereo not given),MIC,[1],32 µg/mL
same,MIC,[2],32 µg/mL
C[C@@H]1[C@H]2C[C@@H](C[C@H]1NC(=O)CNc1ccc(Br)cc1)C2(C)C,MIC,[1],4 µg/mL
same,MIC,[2],16 µg/mL
O=C(CNc1cccc(Br)c1)NC12CC3CC(CC(C3)C1)C2,MIC,[1],1 µg/mL
same,MIC,[2],32 µg/mL
same,solubility kinetic at 6 h,[3],22.2 µg/mL
same,permeability,[4],1.02 10^-6 cm/s
same,"fraction unbound at 4 h, 10 ug/ml",[5],0.068
same,t1/2,[6],0.5 h
same,IC50,[8],> 20 µg/mL
same,selectivity ratio,[9],> 20
same,selectivity ratio,[10],> 20
